“Also recorded” adds a separate entry of the source.
Columns and labels:
[1] = molecular target: T1, recombinant human mGlu7 receptor (Homo sapiens, UniProt Q14831); test: NAM mGlu7 activity, forskolin-induced cAMP (HTRF) in T-REx 293 cell line; format: cell-based; conditions: forskolin-stimulated cAMP response, 5 µM LSP4-2022 (EC80), T-REx 293 human mGlu7; for Inhibition (%): 10 μM compound
T1 construct: expressed in transfected cells; host or cells: T-REx 293 (tetracycline-inducible)
Method: The cell lines with the tetracycline-inducible expression of human metabotropic receptors 4, 7, and 8 were described in detail by Chruścicka et al. (mGlu4 receptor NM_000841, mGlu7 receptor NM_000844.2, and mGlu8 receptor NM_000845). Cells were grown under standard cell culture conditions (37 °C, 5% CO2) in DMEM supplemented with 10% tetracycline-free FBS. The expression was induced through the addition of tetracycline to the culture medium at 0.75 μg/mL.
The determination of the intracellular cAMP through homogeneous time-resolved fluorescence (HTRF) was described in detail previously. Briefly, 48 h before the experiments, the expression of the receptor was induced through the addition of tetracycline to the culture medium; the next day, FBS and L-Glu were removed from the medium. Just before the cAMP measurement, the cells were detached and centrifuged. Then, the cell suspension in Hanks-HEPES (130 mM NaCl, 5.4 mM KCl, 1.8 mM CaCl2, 0.8 mM MgSO4, 0.9 mM NaH2PO4, 20 mM HEPES, and 3.25 mM glucose; pH 7.4) was incubated in the presence of 10 µM forskolin (mGlu7 receptor, 3 µM forskolin), the agonist LSP4-2022 or L-Glu (for mGlu4 and mGlu8), and a compound for 5 min. The intracellular concentration of cyclic AMP was measured by means of a cAMP Gi HTRF kit from Cisbio, according to the manufacturer’s instructions. After 1 h of incubation at room temperature, the fluorescence at 620 nm and 665 nm was read (Tecan Infinite M1000). The results were calculated as the 665 nm/620 nm ratio multiplied by 10^4. Each sample was prepared in triplicate. Data were analyzed using GraphPad Prism version 5.04 for Windows (GraphPad Software, San Diego, USA).
The activity of the compounds was examined in the T-REx 293-cell-line-expressing recombinant human mGlu7 receptor by detecting the level of cyclic AMP in the presence of 5 µM forskolin [7, 41]. […] The substances were incubated with 5 µM LSP4-2022 (EC80).
Firstly, all compounds were screened at 10 μM using three cell lines expressing the mGlu4/7/8 receptor to evaluate selectivity. For the mGlu4 and mGlu8 receptors, glutamic acid was used as an agonist and had good potency. […] VU0155041 and AZ12216052 were used as reference compounds for the mGlu4 and mGlu8 receptors, respectively. The parameter described as “% of inhibition” was introduced to compare the bioactivity of the new compounds to the reference NAM at a 10 μM concentration in the presence of 5 μM LSP4-2022 (0%) and 3 μM forskolin (100%). […] For compounds that passed the screening procedure, the dose–response curve in the presence of LSP4-2022 in 5 μM was evaluated compared to reference NAM ADX71743. Only compounds ALX-063, ALX-065, and ALX-171 (Figure S3, Supplementary Materials) met our conditions regarding bioactivity. All of them were further investigated to determine the EC50 and receptor selectivity. […]
2.1. NAM mGlu7 receptor activity on T-Rex 293 cell line
The activity of compounds was examined on T-REx 293 cell line expressing recombinant human mGlu7 receptor by detecting the level of cyclic AMP in the presence of 5 µM forskolin [14,15]. The cell line was […]
incubated with 5 µM of LSP4-2022 (EC80).

[2] = molecular target: T1, recombinant human mGlu7 receptor; test: as above; format: cell-based
[3] = tested on: animal models of schizophrenia; conditions: mGlu7 PAM; cited from earlier work

T1 sequence (Q14831 35-915): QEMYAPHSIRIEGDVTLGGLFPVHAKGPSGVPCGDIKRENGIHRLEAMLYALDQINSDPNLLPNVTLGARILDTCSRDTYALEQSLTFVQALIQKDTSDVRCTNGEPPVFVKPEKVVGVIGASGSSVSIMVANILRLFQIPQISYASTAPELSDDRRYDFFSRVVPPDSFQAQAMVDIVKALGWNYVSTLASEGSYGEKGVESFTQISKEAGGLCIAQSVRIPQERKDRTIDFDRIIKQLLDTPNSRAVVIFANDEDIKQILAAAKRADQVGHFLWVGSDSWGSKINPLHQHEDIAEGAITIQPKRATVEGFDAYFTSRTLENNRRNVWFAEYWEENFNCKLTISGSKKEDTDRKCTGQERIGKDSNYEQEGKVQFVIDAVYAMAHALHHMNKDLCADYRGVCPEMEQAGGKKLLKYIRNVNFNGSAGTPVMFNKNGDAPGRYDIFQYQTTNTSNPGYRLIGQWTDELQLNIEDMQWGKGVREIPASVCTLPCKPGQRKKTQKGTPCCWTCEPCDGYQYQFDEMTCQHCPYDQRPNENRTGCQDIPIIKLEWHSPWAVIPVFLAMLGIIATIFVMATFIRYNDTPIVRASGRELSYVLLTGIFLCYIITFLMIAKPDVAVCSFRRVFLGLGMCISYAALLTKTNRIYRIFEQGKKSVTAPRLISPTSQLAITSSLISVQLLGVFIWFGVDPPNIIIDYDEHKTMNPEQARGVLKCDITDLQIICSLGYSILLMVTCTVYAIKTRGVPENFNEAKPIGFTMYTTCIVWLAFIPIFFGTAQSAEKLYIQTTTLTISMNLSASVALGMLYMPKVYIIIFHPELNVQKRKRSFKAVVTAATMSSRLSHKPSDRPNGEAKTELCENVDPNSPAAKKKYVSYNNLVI

| Compound | Inhibition (%) [1] | further results |
| --- | --- | --- |
| COc1ccc(-c2ccc3nc(-c4ccccc4Cl)n(C)c(=O)c3c2)cc1OC [A9-9] | Inactive | – |
| Cn1c(-c2ccccc2)nc2ccc(-c3ccccc3)cc2c1=O [ALX-063, 3-methyl-2,6-diphenylquinazolin-4(3H)-one] | – | inhibition at 10 µM ([1]; T-REx-293, 10 μM compound): 42.5 ± 36.5%; IC50 ([2]; T-REx 293 cells expressing human mGlu7, 5 µM LSP4-2022 (EC80), 5 µM forskolin): 6.5 µM |
| COc1cccc(OC)c1-c1ccc2nc(-c3ccccc3Cl)n(C)c(=O)c2c1 [A9-12] | Inactive | – |
| COc1ccc(-c2ccc3nc(-c4ccccc4Cl)n(C)c(=O)c3c2)c(OC)c1 [A9-8] | Inactive | – |
| c1ccc(C(NCCNC(c2ccccc2)c2ccccc2)c2ccccc2)cc1 [AMN082] | – | activity in animal models [3]: propsychotic activity |
| COc1ccc(-c2ccc3nc(-c4ccccc4Cl)n(C)c(=O)c3c2)cc1 [A9-6] | not observed; also recorded: Inactive | – |
| COc1cc(OC)cc(-c2ccc3nc(-c4ccccc4Cl)n(C)c(=O)c3c2)c1 [A9-11] | Inactive | – |
| COc1ccccc1-c1ccc2nc(-c3ccccc3Cl)n(C)c(=O)c2c1 [A9-4] | Inactive | – |
| N[C@@H](CCC(=O)O)C(=O)O [L-Glu] | – | agonist potency at mGlu7 receptor ([2]; agonist compared with LSP4-2022): ~ 1 mM |
| COc1cccc(-c2ccc3nc(-c4ccccc4Cl)n(C)c(=O)c3c2)c1 [A9-5] | Inactive | – |
| COc1ccc(OC)c(-c2ccc3nc(-c4ccccc4Cl)n(C)c(=O)c3c2)c1 [A9-10] | Inactive | – |

Reference: publication PMC9916658, “Design and Synthesis of New Quinazolin-4-one Derivatives with Negative mGlu7 Receptor Modulation Activity and Antipsychotic-Like Properties” (International Journal of Molecular Sciences, 2023)
